Measurements: patent US20090048203A1, “SUBSTITUTED ADENINES AND THE USES THEREOF” (priority 2004, published 2009)
Converted amounts (≈) assume the structure as drawn.

biological target: S. pneumoniae LigA (Streptococcus pneumoniae serotype 4, UniProt Q97QT2); test: DNA ligase inhibition, FRET detection assay; assay type: biochemical; conditions: ten compound concentrations; read-out: IC50 (μM) against S. pneumoniae LigA
Experimental: Compounds were tested for inhibition of DNA ligase using a Fluorescence Resonance Energy Transfer (FRET) detection assay as previously described (Chen et al. 2002. Analytical Biochemistry 309: 232-240; Benson et al. 2004. Analytical Biochemistry 324:298-300). Assays were performed in 384-well polystyrene flat-bottom black plates in 30 μl reactions containing 3 μl compound dissolved in dimethylsulfoxide, 20 μl 1.5× Enzyme Working Solution (25% glycerol, 45 mM potassium chloride, 45 mM ammonium sulfate, 15 mM dithiothreitol, 1.5 mM ethylenediaminetetraacetic acid (EDTA), 0.003% Brij 35, 75 mM MOPS pH 7.5, 150 nM bovine serum albumin, 1.5 μM NAD^+, 60 nM DNA substrate, 0.375 nM enzyme in water) and 7 μl […] magnesium chlorine solution (96 mM magnesium chloride, 20% glycerol in water) to initiate the reaction. The DNA substrate is similar to that described in Benson et al. (2004. Analytical Biochemistry 324:298-300). The assay reactions were incubated at room temperature for approximately 20 minutes before being terminated by the addition of 30 μl Quench reagent (8 M Urea, 1 M Trizma base, 20 mM EDTA in water). Plates were read in a Tecan Ultra plate reader at two separate wavelengths—Read 1: excitation 485, emission 535, Read 2: excitation 485, emission 595. Data is initially expressed as a ratio of the 595/535 emission values and percent inhibition values were calculated using […] dimethylsulfoxide (no compound) as the 0% inhibition and EDTA-containing (50 mM) reactions as 100% inhibition controls. Compound potency was based on IC50 measurements determined from reactions performed in the presence of ten different compound concentrations.

Sequence of S. pneumoniae LigA (Q97QT2 whole entry): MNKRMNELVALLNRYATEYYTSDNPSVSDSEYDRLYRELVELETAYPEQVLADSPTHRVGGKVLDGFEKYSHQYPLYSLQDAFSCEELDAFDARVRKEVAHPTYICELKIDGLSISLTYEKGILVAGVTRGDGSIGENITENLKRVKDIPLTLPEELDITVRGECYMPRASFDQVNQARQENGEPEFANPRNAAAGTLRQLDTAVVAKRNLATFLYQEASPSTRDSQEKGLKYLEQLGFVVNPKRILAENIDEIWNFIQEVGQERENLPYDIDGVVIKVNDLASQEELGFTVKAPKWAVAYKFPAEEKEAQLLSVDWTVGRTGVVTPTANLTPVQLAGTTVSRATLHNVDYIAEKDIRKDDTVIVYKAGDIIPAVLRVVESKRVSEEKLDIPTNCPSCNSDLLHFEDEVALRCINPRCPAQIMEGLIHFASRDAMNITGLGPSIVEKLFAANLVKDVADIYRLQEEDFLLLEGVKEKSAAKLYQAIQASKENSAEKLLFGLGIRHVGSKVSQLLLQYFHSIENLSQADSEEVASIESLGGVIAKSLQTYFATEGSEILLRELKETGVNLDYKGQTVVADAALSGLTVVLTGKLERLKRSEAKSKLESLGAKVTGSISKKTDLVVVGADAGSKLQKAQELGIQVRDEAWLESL

Row | IC50 [µM] | Structure (SMILES)
1 | 0.7 | Nc1nc(OC2CCCC2)nc2c1ncn2C1OCCC1N (stereo not shown) [Example 128, 9-(3-aminotetrahydrofuran-2-yl)-2-(cyclopentyloxy)-9H-purin-6-amine]
2 | 0.5 | C=C[C@H]1O[C@@H](n2cnc3c(N)nc(OC4CCCC4)nc32)[C@H](O)[C@@H]1O [Example 259, 2-(cyclopentyloxy)-9-(5,6-dideoxy-β-D-ribo-hex-5-enofuranosyl)-9H-purin-6-amine]

The remaining lines, values behind:

Row | Structure (SMILES) | IC50 [µM]
3 | Nc1nc(SCc2ccco2)nc2c1ncn2C1CCCO1 (stereo not shown) [Example 6, 2-[(2-furylmethyl)thio]-9-(tetrahydrofuran-2-yl)-9H-purin-6-amine] | 1.8
4 | Nc1nc(OCc2ccccc2)nc2c1ncn2C1CCCO1 (stereo not shown) [Example 25, 2-(benzyloxy)-9-(tetrahydrofuran-2-yl)-9H-purin-6-amine] | 4
5 | Nc1nc(OCC2CCCC2)nc2c1ncn2[C@@H]1O[C@H](CO)[C@@H](O)[C@H]1O [Example 172, 2-(Cyclopentyl)methoxy-9-β-D-ribofuranosyl-9H-purine-6-amine] | 0.145

system: S. pneumoniae; test: Bacterial susceptibility testing, microbroth dilution (MIC); assay type: cell-based; conditions: Streptococcus pneumoniae; lowest drug concentration able to reduce growth by 80% or more; read-out: MIC (μg/ml) against S. pneumoniae
Experimental: Compounds were tested for antimicrobial activity by susceptibility testing using microbroth dilution methods recommended by NCCLS. Compounds were dissolved in dimethylsulfoxide and tested in 10 doubling dilutions in the susceptibility assays such that the final dimethylsulfoxide concentration in the assay was 2% (v/v). The organisms used in the assay were grown overnight on appropriate agar media and then suspended in the NCCLS-recommended liquid susceptibility-testing media. The turbidity of each suspension was adjusted to be equal to a 0.5 McFarland standard, a further 1-in-10 dilution was made into the same liquid medium to prepare the final organism suspension, and 100 μL of this suspension was added to each well of a microtiter plate containing compound dissolved in 2 μL of dimethylsulfoxide. Plates were incubated under appropriate conditions of atmosphere and temperature and for times according to NCCLS standard methods prior to being read. The Minimum Inhibitory Concentration (MIC) was determined as the lowest drug concentration able to reduce growth by 80% or more.

Row | MIC [µg/mL] | Structure (SMILES)
6 | 8 (≈ 26.4 µM) | Nc1nc(OC2CCCCC2)nc2c1ncn2C1CCCO1 (stereo not shown) [Example 27, 2-(cyclohexyloxy)-9-(tetrahydrofuran-2-yl)-9H-purin-6-amine]
7 | 4 (≈ 11.2 µM) | Nc1nc(OC2CCC3CCCCC3C2)nc2c1ncn2C1CCCO1 (stereo not shown) [Example 62, 2-(decahydronaphthalen-2-yloxy)-9-(tetrahydrofuran-2-yl)-9H-purin-6-amine]
8 | 8 (≈ 20.2 µM) | Nc1nc(OC2CCCC2)nc2c1ncn2[C@@H]1O[C@H](COCCO)[C@@H](O)[C@H]1O [Example 129, 2-(cyclopentyloxy)-9-[5-O-(2-hydroxyethyl)-β-D-ribofuranosyl]-9H-purin-6-amine]
9 | 2 (≈ 5.47 µM) | Nc1nc(OCC2CCCC2)nc2c1ncn2[C@@H]1O[C@H](CO)[C@@H](O)[C@H]1O [Example 172, 2-(Cyclopentyl)methoxy-9-β-D-ribofuranosyl-9H-purine-6-amine]
10 | 4 (≈ 8.78 µM) | COc1cccc(CO[C@H]2[C@@H](O)[C@H](n3cnc4c(N)nc(OC5CCCC5)nc43)O[C@@H]2C)c1 [Example 356]
